Results on 32 molecules are retold here after patent US20260217687A1 (NeoPhore Limited, priority 2023, published 2026).

This experiment addresses T1, recombinant N-terminal MLH1 (residues 15-340) (Homo sapiens, UniProt P40692).
T1 construct: recombinant N-terminal MLH1 (residues 15-340)
T1 sequence (P40692 15-340): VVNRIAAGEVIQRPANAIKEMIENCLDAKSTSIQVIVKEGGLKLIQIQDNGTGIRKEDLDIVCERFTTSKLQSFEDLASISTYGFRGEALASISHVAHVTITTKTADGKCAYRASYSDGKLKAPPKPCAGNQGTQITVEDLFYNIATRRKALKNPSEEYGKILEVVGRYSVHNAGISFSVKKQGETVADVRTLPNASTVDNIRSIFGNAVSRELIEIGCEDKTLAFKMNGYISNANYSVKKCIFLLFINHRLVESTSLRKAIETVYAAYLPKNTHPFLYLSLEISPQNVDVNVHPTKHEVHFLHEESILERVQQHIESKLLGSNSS
Nature of the experiment: Fluorescence Polarisation Assay for MLH1. It is filed as binding. Conditions: 100 nM N-terminal MLH1, 5 nM probe compound. An outline of the steps:
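Fluorescence polarisation displacement: 100 nM MLH1 (15-340) preincubated 30 min at room temperature with compound, then 5 nM rhodamine-labelled probe added and read immediately. Buffer 25 mM HEPES pH 7.5, 250 mM NaCl, 10 mM MgCl2, 0.01% Triton X-100, 5 mM DTT; normalised to no-inhibitor and no-enzyme controls.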

In general, IC50 refers to the midpoint of a concentration-inhibition curve. `N#Cc1cc(O)c(C(=O)N2CCc3cccc(N[C@@H]4CCOC4)c3C2)c(OCc2ccccc2)c1` [Example 10.12, (R)-3-(Benzyloxy)-5-hydroxy-4-(8-((tetrahydrofuran-3-yl)amino)-1,2,3,4-tetrahydroisoquinoline-2-carbonyl)benzonitrile]: the half-maximal inhibitory concentration (IC50) is 1 to 10 µM.
The result for `COc1cc2c(c(N[C@@H]3CCOC3)c1)CN(C(=O)c1c(O)cc(C#N)cc1OCc1ccccc1)C2` [Example 10.13, (R)-3-(Benzyloxy)-5-hydroxy-4-(6-methoxy-4-((tetrahydrofuran-3-yl)amino)isoindoline-2-carbonyl)benzonitrile] reads 0.1 to 1 µM; that for `COc1cc2c(c(N[C@H]3CCOC3)c1)CN(C(=O)c1c(O)cc(C#N)cc1OCc1ccccc1)C2` [Example 10.14, (S)-3-(Benzyloxy)-5-hydroxy-4-(6-methoxy-4-((tetrahydrofuran-3-yl)amino)isoindoline-2-carbonyl)benzonitrile], 0.1 to 1 µM; that for `CN(C)Cc1ccc2c(c1)CN(C(=O)c1c(O)cc(C#N)cc1OCc1ccccc1)C2` [Example 10.15, 3-(Benzyloxy)-4-(5-((dimethylamino)methyl)isoindoline-2-carbonyl)-5-hydroxybenzonitrile], 1 to 10 µM.
Under `CC(=O)N1CCC(Nc2cccc3c2CN(C(=O)c2c(O)cc(C#N)cc2OCc2ccccc2)C3)CC1` [Example 10.16, 4-(4-((1-Acetylpiperidin-4-yl)amino)isoindoline-2-carbonyl)-3-(benzyloxy)-5-hydroxybenzonitrile] stands 0.1 to 1 µM; under `CC(=O)N1CCC[C@@H](Nc2cccc3c2CN(C(=O)c2c(O)cc(C#N)cc2OCc2ccccc2)C3)C1` [Example 10.17, (R)-4-(4-((1-Acetylpiperidin-3-yl)amino)isoindoline-2-carbonyl)-3-(benzyloxy)-5-hydroxybenzonitrile], 1 to 10 µM.
Under `CC(=O)N1CCC[C@H](Nc2cccc3c2CN(C(=O)c2c(O)cc(C#N)cc2OCc2ccccc2)C3)C1` [Example 10.18, (S)-4-(4-((1-Acetylpiperidin-3-yl)amino)isoindoline-2-carbonyl)-3-(benzyloxy)-5-hydroxybenzonitrile] stands 0.1 to 1 µM; under `N#Cc1cc(O)c(C(=O)N2Cc3cccc(NC4COC(=O)C4)c3C2)c(OCc2ccccc2)c1` (centres unmarked) [Example 10.19, 3-(Benzyloxy)-5-hydroxy-4-(4-((5-oxotetrahydrofuran-3-yl)amino)isoindoline-2-carbonyl)benzonitrile], 0.1 to 1 µM.
As for `CN1CC(Nc2cccc3c2CN(C(=O)c2c(O)cc(Cl)cc2OCc2ccccc2)C3)C1` [Example 10.20, (2-(Benzyloxy)-4-chloro-6-hydroxyphenyl)(4-((1-methylazetidin-3-yl)amino)isoindolin-2-yl)methanone], the IC50 was in the range of 0.1 to 1 µM.
Under `CN(C)Cc1ccc2c(n1)CN(C(=O)c1c(O)cc(Cl)cc1OCc1ccccc1)C2` [Example 10.21] stands 1 to 10 µM.
Turning to `CN(C)CCOc1ccc2c(c1)CCN(C(=O)c1c(O)cc(Cl)cc1OCc1ccccc1)C2` [Example 10.22, (2-(Benzyloxy)-4-chloro-6-hydroxyphenyl)(6-(2-(dimethylamino)ethoxy)-3,4-dihydroisoquinolin-2(1H)-yl)methanone], the half-maximal inhibitory concentration (IC50) lay within 1 to 10 µM.
`CC(=O)N1CC(Nc2cccc3c2CN(C(=O)c2c(O)cc(F)cc2OCc2ccccc2)C3)C1` [Example 10.23, 1-(3-((2-(2-(Benzyloxy)-4-fluoro-6-hydroxybenzoyl)isoindolin-4-yl)amino)azetidin-1-yl)ethan-1-one]: the IC50 fell in the range of 0.1 to 1 µM.
The result for `CN(C)CCOc1ccc2c(c1)CCN(C(=O)c1c(O)cc(F)cc1OCc1ccccc1)C2` [Example 10.24, (2-(Benzyloxy)-4-fluoro-6-hydroxyphenyl)(6-(2-(dimethylamino)ethoxy)-3,4-dihydroisoquinolin-2(1H)-yl)methanone] reads 1 to 10 µM.
The result for `N#Cc1cc(O)c(C(=O)N2Cc3cccc(NC4COC4)c3C2)c(OCc2ccccc2)c1` [Example 10.26, 3-(Benzyloxy)-5-hydroxy-4-(4-(oxetan-3-ylamino)isoindoline-2-carbonyl)benzonitrile] reads 0.1 to 1 µM; that for `CN1CC[C@H](Nc2cccc3c2CN(C(=O)c2c(O)cc(C#N)cc2OCc2ccccc2)C3)C1=O` [Example 10.27, (S)-3-(Benzyloxy)-5-hydroxy-4-(4-((1-methyl-2-oxopyrrolidin-3-yl)amino)isoindoline-2-carbonyl)benzonitrile], 0.1 to 1 µM.
Under `CN1CC[C@@H](Nc2cccc3c2CN(C(=O)c2c(O)cc(C#N)cc2OCc2ccccc2)C3)C1=O` [Example 10.28, (R)-3-(benzyloxy)-5-hydroxy-4-(4-((1-methyl-2-oxopyrrolidin-3-yl)amino)isoindoline-2-carbonyl)benzonitrile] stands 0.1 to 1 µM; under `CN(C)CCOc1ccc2c(c1)CCN(C(=O)c1c(O)cc(C#N)cc1OCc1ccccc1)C2` [Example 10.29, 3-(Benzyloxy)-4-(6-(2-(dimethylamino)ethoxy)-1,2,3,4-tetrahydroisoquinoline-2-carbonyl)-5-hydroxybenzonitrile], 1 to 10 µM; under `CN1CC[C@@H](Oc2ccc3c(c2)CN(C(=O)c2c(O)cc(C#N)cc2OCc2ccccc2)C3)C1` [Example 10.30, (R)-3-(Benzyloxy)-5-hydroxy-4-(5-((1-methylpyrrolidin-3-yl)oxy)isoindoline-2-carbonyl)benzonitrile], 0.1 to 1 µM.
Turning to `CN1CC[C@H](Oc2ccc3c(c2)CN(C(=O)c2c(O)cc(C#N)cc2OCc2ccccc2)C3)C1` [Example 10.31, (S)-3-(Benzyloxy)-5-hydroxy-4-(5-((1-methylpyrrolidin-3-yl)oxy)isoindoline-2-carbonyl)benzonitrile], the half-inhibitory concentration (IC50) was in the range of 0.1 to 1 µM.
The result for `CN1CC(Oc2ccc3c(c2)CN(C(=O)c2c(O)cc(C#N)cc2OCc2ccccc2)C3)C1` [Example 10.32, 3-(Benzyloxy)-5-hydroxy-4-(5-((1-methylazetidin-3-yl)oxy)isoindoline-2-carbonyl)benzonitrile] reads 0.1 to 1 µM.
In the case of `CN1CCC(Oc2ccc3c(c2)CN(C(=O)c2c(O)cc(C#N)cc2OCc2ccccc2)C3)CC1` [Example 10.33, 3-(Benzyloxy)-5-hydroxy-4-(5-((1-methylpiperidin-4-yl)oxy)isoindoline-2-carbonyl)benzonitrile], the IC50 lay in the range of 0.1 to 1 µM.
Take `CN1CCN(Cc2ccc3c(c2)CN(C(=O)c2c(O)cc(C#N)cc2OCc2ccccc2)C3)CC1` [Example 10.34, 3-(Benzyloxy)-5-hydroxy-4-(5-((4-methylpiperazin-1-yl)methyl)isoindoline-2-carbonyl)benzonitrile]: the IC50 lay in the range of 0.1 to 1 µM.
On to `COCCOc1ccc2c(c1)CN(C(=O)c1c(O)cc(C#N)cc1OCc1ccccc1)C2` [Example 10.35, 3-(Benzyloxy)-5-hydroxy-4-(5-(2-methoxyethoxy)isoindoline-2-carbonyl)benzonitrile], for which the 50% inhibitory concentration (IC50) lay within 0.1 to 1 µM.
Regarding `N#Cc1cc(O)c(C(=O)N2Cc3ccc(OC4CCOCC4)cc3C2)c(OCc2ccccc2)c1` [Example 10.36, 3-(Benzyloxy)-5-hydroxy-4-(5-((tetrahydro-2H-pyran-4-yl)oxy)isoindoline-2-carbonyl)benzonitrile], the IC50 lay in the range of 0.1 to 1 µM.
Consider `CN1CC(Oc2ccc3c(c2)CN(C(=O)c2c(O)cc(C#N)cc2OCc2ccccn2)C3)C1` [Example 10.37, 3-Hydroxy-4-(5-((1-methylazetidin-3-yl)oxy)isoindoline-2-carbonyl)-5-(pyridin-2-ylmethoxy)benzonitrile], for which the IC50 lay in the range of 1 to 10 µM.
With `N#Cc1cc(O)c(C(=O)N2Cc3cccc(NC4COC4)c3C2)c(OCc2ccccn2)c1` [Example 10.38, 3-Hydroxy-4-(4-(oxetan-3-ylamino)isoindoline-2-carbonyl)-5-(pyridin-2-ylmethoxy)benzonitrile], the IC50 lay within 1 to 10 µM.
In the case of `N#Cc1cc(O)c(C(=O)N2Cc3cccc(N[C@H]4CCOC4)c3C2)c(OCc2ccccn2)c1` [Example 10.39, (S)-3-Hydroxy-5-(pyridin-2-ylmethoxy)-4-(4-((tetrahydrofuran-3-yl)amino)isoindoline-2-carbonyl)benzonitrile], the 50% inhibitory concentration (IC50) fell in the range of 0.1 to 1 µM.
Regarding `N#Cc1cc(O)c(C(=O)N2Cc3cccc(N[C@H]4CCOC4)c3C2)c(OCc2ccccc2)c1` [Example 12, (S)-3-(Benzyloxy)-5-hydroxy-4-(4-((tetrahydrofuran-3-yl)amino)isoindoline-2-carbonyl)benzonitrile], the half-inhibitory concentration (IC50) is 0.1 to 1 µM.
The result for `COc1cc(C#N)cc(O)c1C(=O)N1Cc2cccc(N[C@H]3CCOC3)c2C1` [Example 12.1, (S)-3-Hydroxy-5-methoxy-4-(4-((tetrahydrofuran-3-yl)amino)isoindoline-2-carbonyl)benzonitrile] reads 1 to 10 µM; that for `N#Cc1cc(O)c(C(=O)N2Cc3cccc(N[C@H]4CCOC4)c3C2)c(OCC2CC2)c1` [Example 12.2, (S)-3-(Cyclopropylmethoxy)-5-hydroxy-4-(4-((tetrahydrofuran-3-yl)amino)isoindoline-2-carbonyl)benzonitrile], 1 to 10 µM; that for `N#Cc1cc(O)c(C(=O)N2Cc3cccc(N[C@@H]4CCOC4)c3C2)c(OCc2ccccc2)c1` [Example 12.3, (R)-3-(Benzyloxy)-5-hydroxy-4-(4-((tetrahydrofuran-3-yl)amino)isoindoline-2-carbonyl)benzonitrile], 1 to 10 µM.
As to `N#Cc1cc(O)c(C(=O)N2Cc3ccccc3C2)c(OCc2ccccc2)c1` [Example 12.4, 3-(Benzyloxy)-5-hydroxy-4-(isoindoline-2-carbonyl)benzonitrile], the IC50 lay in the range of 1 to 10 µM.
